One assay concerns the target T1, Solute carrier family 12 member 5 (Homo sapiens, UniProt Q9H2X9).
T1 sequence (Q9H2X9 whole entry): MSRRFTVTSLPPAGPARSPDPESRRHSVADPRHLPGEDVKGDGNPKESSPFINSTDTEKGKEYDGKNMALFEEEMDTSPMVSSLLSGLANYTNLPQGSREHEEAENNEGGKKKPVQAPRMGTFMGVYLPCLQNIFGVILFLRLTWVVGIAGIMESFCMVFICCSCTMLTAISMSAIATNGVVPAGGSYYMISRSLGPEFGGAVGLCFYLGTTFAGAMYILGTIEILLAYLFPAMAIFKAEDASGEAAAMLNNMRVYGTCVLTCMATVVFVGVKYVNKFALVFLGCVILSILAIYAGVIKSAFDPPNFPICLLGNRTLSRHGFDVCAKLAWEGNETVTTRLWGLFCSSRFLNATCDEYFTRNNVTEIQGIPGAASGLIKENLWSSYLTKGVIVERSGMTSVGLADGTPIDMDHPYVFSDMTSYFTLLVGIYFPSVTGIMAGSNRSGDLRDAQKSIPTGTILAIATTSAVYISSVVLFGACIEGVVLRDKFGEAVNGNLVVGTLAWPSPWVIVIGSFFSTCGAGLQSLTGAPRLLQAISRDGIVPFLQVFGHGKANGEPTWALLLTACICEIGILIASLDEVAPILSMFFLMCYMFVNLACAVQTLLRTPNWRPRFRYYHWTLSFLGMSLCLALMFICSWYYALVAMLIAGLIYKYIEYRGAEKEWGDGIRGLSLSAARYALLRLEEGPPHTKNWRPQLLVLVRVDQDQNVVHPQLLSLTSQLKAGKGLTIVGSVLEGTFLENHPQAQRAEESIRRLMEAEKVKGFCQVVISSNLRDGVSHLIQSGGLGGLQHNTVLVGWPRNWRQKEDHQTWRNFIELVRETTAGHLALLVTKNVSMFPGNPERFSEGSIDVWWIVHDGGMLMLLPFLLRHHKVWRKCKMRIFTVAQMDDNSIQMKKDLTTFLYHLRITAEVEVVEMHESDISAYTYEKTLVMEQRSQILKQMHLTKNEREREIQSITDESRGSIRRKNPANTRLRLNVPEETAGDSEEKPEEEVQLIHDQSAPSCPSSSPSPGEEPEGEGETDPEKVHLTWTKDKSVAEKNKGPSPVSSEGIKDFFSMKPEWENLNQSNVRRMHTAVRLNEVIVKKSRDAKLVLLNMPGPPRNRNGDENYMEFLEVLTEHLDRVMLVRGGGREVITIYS
Nature of the assay: KCC2 modulator potency by thallium flux, dose response, cell-based, HEK293 KCC2, FluoZin-2 fluorescence (AID 1736).
Conditions: not given
Take `COc1ccc(-c2cc(CNC(=O)CN(C)Cc3ccccc3)on2)cc1` [2-[benzyl(methyl)amino]-N-[[3-(4-methoxyphenyl)-1,2-oxazol-5-yl]methyl]acetamide]: the EC50 turned out to be 24.6 µM. Same read-out and setting: in the case of `O=S(=O)(NC1CCCC1)c1cccc(S(=O)(=O)N2CCC(n3nnc4ccccc43)CC2)c1` [3-(4-Benzotriazol-1-yl-piperidine-1-sulfonyl)-N-cyclopentyl-benzenesulfonamide] it was 4.05 µM. On the same count and under the same terms, under `CCOC(=O)c1cc2c(ccn2C)n1CC(=O)N1CCC(Cc2ccccc2)CC1` [1-[2-(4-Benzyl-piperidin-1-yl)-2-oxo-ethyl]-4-methyl-1,4-dihydro-pyrrolo[3,2-b]pyrrole-2-carboxylic acid ethyl ester] stands 10.8 µM; under `Cc1[nH]c2ccccc2c1SCC(=O)N1CCN(c2ccccc2)CC1` [2-[(2-methyl-1H-indol-3-yl)thio]-1-(4-phenyl-1-piperazinyl)ethanone], 5.46 µM.

`O=C(O)/C=C/c1cn(Cc2ccccc2Cl)nc1-c1ccccc1` [(E)-3-[1-(2-chlorobenzyl)-3-phenyl-pyrazol-4-yl]acrylic acid] had an EC50 of 0.409 µM. On to `Cc1[nH]c2ccccc2c1Cc1nnc(S)o1`, for which a half-maximal effect (EC50) was put at 0.744 µM. As for `Sc1nnc(COc2ccc(Cl)cc2)o1` [5-(4-Chloro-phenoxymethyl)-3H-[1,3,4]oxadiazole-2-thione], the response was half-maximal at 3.12 µM (EC50). Compound `O=C(C1CCCN(S(=O)(=O)c2cccc3nonc23)C1)N1CCC(Cc2ccccc2)CC1` (stereo unspecified) [(1-benzofurazan-4-ylsulfonyl-3-piperidyl)-(4-benzylpiperidino)methanone] displayed a concentration giving a half-maximal response (EC50) of 1460 µM. Compound `Cn1nccc1C(=O)OCC(=O)Nc1nc(-c2ccccc2)cs1` [2-Methyl-2H-pyrazole-3-carboxylic acid (4-phenyl-thiazol-2-ylcarbamoyl)-methyl ester] returned an EC50 of 6.08 µM.

For the compound `Cc1ccc(-c2noc(CN3CCN(Cc4ccccc4)CC3)n2)cc1` [1-benzyl-4-{[3-(4-methylphenyl)-1,2,4-oxadiazol-5-yl]methyl}piperazine], the concentration giving a half-maximal response (EC50) amounted to 7.58 µM. On the same count and under the same terms, under `O=C(COC(=O)c1cc([N+](=O)[O-])ccc1NCCO)c1ccccc1` [2-(2-hydroxyethylamino)-5-nitro-benzoic acid phenacyl ester] stands 31.1 µM; under `O=S(=O)(Nc1nc2ccccc2nc1N1CCN(c2ccccn2)CC1)c1ccc(Cl)cc1` [4-chloranyl-N-[3-(4-pyridin-2-ylpiperazin-1-yl)quinoxalin-2-yl]benzenesulfonamide], 14.9 µM.

Take `NC1=NC[C@@H](Cc2ccc(O)cc2)N1CCc1cc(C(F)(F)F)cc(C(F)(F)F)c1`: the 50% effective concentration (EC50) turned out to be 38.2 µM. Still for that read-out and setting: in the case of `COC(=O)c1sccc1NC(=S)OC` [3-(methoxycarbothioylamino)thiophene-2-carboxylic acid methyl ester] it was 1.48 µM; in that of `O=C(CSc1ccccc1C(=O)NCc1ccccc1)NC12CC3CC(CC(C3)C1)C2`, 6.49 µM; in that of `CCOC(=O)c1cc2c(ccn2-c2ccc(F)cc2)n1CC(=O)NC(C)(C)C` [4-[2-(tert-butylamino)-2-keto-ethyl]-1-(4-fluorophenyl)pyrrolo[3,2-b]pyrrole-5-carboxylic acid ethyl ester], 19.2 µM. On to `CCc1ccc(Nc2nnc(SCc3cc(=O)n4ccsc4n3)s2)cc1` [7-[[5-(4-ethylanilino)-1,3,4-thiadiazol-2-yl]sulfanylmethyl]-[1,3]thiazolo[3,2-a]pyrimidin-5-one], for which the EC50 came to 0.113 µM. In turn, `O=C(OCC(=O)N1CCN(C(=O)c2ccco2)CC1)c1sc2ccccc2c1Cl` [3-chloro-1-benzothiophene-2-carboxylic acid [2-[4-[2-furanyl(oxo)methyl]-1-piperazinyl]-2-oxoethyl] ester] yielded a concentration for a half-maximal effect (EC50) of 1.6 µM. Same read-out and setting: under `O=C(c1ccc(-c2ccccc2)cc1)C1CCCN(Cc2ccncc2)C1` (stereo unspecified) [(4-phenylphenyl)-[1-(4-pyridylmethyl)-3-piperidyl]methanone] stands 4.61 µM; under `Cc1ccc(C(=O)O)cc1-c1ccc(C=C2NC(=O)N(c3ccccc3)C2=O)o1` [3-[5-[(E)-(2,5-dioxo-1-phenylimidazolidin-4-ylidene)methyl]furan-2-yl]-4-methylbenzoic acid], 10.7 µM; under `Cc1nn(-c2ccc(F)cc2)c(C)c1NS(=O)(=O)c1ccc(Cl)cc1` [4-chloranyl-N-[1-(4-fluorophenyl)-3,5-dimethyl-pyrazol-4-yl]benzenesulfonamide], 3290 µM. The same measure, in the same setting: in the case of `CCn1c(CCNC(=O)c2cccs2)nnc1SCC(=O)Nc1nc(-c2ccccc2)cs1` [MLS000548611] it was 19.1 µM. Compound `COCCNS(=O)(=O)c1ccc(-c2ccc(Cl)cc2)cc1` [4'-chloro-N-(2-methoxyethyl)-4-biphenylsulfonamide] yielded a concentration giving a half-maximal response (EC50) of 3.27 µM. This EC50 is about 5.8-fold lower than that of the compound before. For `O=C(/C=C/c1ccco1)N1CCC(Cc2ccccc2)CC1` [(E)-1-(4-benzylpiperidin-1-yl)-3-(furan-2-yl)prop-2-en-1-one], the midpoint of the response, the EC50, lay at 9.8 µM. With `CCn1c(SCC(=O)Nc2ccc(Cl)cc2)nc2nc3c(cc2c1=O)CCCC3` [MLS000589154], it took 45.5 µM to reach a half-maximal effect (EC50). Regarding `COc1cc(C=NN(C)c2ccccc2)ccc1O`, the EC50 stood at 2.75 µM. This EC50 lies about 17-fold lower than the previous one. The same measure, in the same setting: in the case of `CC1Cc2ccccc2N1C(=O)c1ccc(N2CCCCC2)c([N+](=O)[O-])c1` (stereo unspecified) [(2-methyl-2,3-dihydroindol-1-yl)-(3-nitro-4-piperidin-1-yl-phenyl)methanone] it was 0.632 µM; in that of `Cc1ccccc1-c1nc(CS(=O)(=O)CC(=O)NCc2ccccc2)c(C)o1` [2-[[5-methyl-2-(2-methylphenyl)-1,3-oxazol-4-yl]methylsulfonyl]-N-(phenylmethyl)ethanamide], 110 µM. Still for that read-out and setting: in the case of `Cc1noc(C)c1S(=O)(=O)N1CCC(C(=O)N2CCN(c3ccc(F)cc3)CC2)CC1` [1-({1-[(3,5-dimethylisoxazol-4-yl)sulfonyl]piperidin-4-yl}carbonyl)-4-(4-fluorophenyl)piperazine] it was 23.1 µM; in that of `CC(C)NC(=S)NNC1=c2cc(C(C)C)ccc2=NC1=O` [SMR000242097], 5.86 µM.

`CSc1ccccc1N=C(S)Nc1ccc(S(N)(=O)=O)cc1` [1-(2-methylsulfanylphenyl)-3-(4-sulfamoylphenyl)thiourea] returned a concentration giving a half-maximal response (EC50) of 12.8 µM. Against the preceding compound, the EC50 is about 2.2-fold higher. Still for that read-out and setting: in the case of `c1ccc(-c2csc(N=NCc3ccco3)n2)cc1` [(2-furfurylideneamino)-(4-phenylthiazol-2-yl)amine] it was 2.58 µM; in that of `COc1cc(C(=S)N2CCOCC2)cc(OC)c1OC(=O)Cc1ccccc1` [(2,6-dimethoxy-4-morpholin-4-ylcarbothioyl-phenyl) 2-phenylethanoate], 0.408 µM; in that of `CC1Cc2ccccc2N1C(=O)c1ccc(N2CCCC2)c([N+](=O)[O-])c1` (stereo unspecified) [(2-methyl-2,3-dihydroindol-1-yl)-(3-nitro-4-pyrrolidin-1-yl-phenyl)methanone], 0.651 µM.

Staying with this assay, now noted: inactive by the depositor's call.
`Cc1nc(N2CCN(Cc3ccccc3)CC2)nc2c1C(=O)CCC2` [2-(4-benzylpiperazin-1-yl)-4-methyl-7,8-dihydro-6H-quinazolin-5-one]: the concentration giving a half-maximal response (EC50) came out at 8.64 µM. Still for that read-out and setting: under `N#Cc1nc(COc2ccccc2F)oc1NCc1ccc(F)cc1` [2-[(2-fluoranylphenoxy)methyl]-5-[(4-fluorophenyl)methylamino]-1,3-oxazole-4-carbonitrile] stands 1.86 µM; under `O=C(CSc1nc2cc(Cl)ccc2s1)Nc1cccc(S(=O)(=O)N2CCOCC2)c1` [2-[(5-chloranyl-1,3-benzothiazol-2-yl)sulfanyl]-N-(3-morpholin-4-ylsulfonylphenyl)ethanamide], 25.1 µM; under `CCc1ccc(-c2nc(C[S+]([O-])CC(=O)NCc3cccnc3)c(C)o2)cc1` (stereo unspecified) [2-({[2-(4-ethylphenyl)-5-methyl-1,3-oxazol-4-yl]methyl}sulfinyl)-N-(pyridin-3-ylmethyl)acetamide], 38.3 µM. As for `CCc1ccc(OCC(=O)NNC(=O)CSc2ncnc3sc(C)c(C)c23)cc1` [(4-Ethyl-phenoxy)-acetic acid N'-[2-(5,6-dimethyl-thieno[2,3-d]pyrimidin-4-ylsulfanyl)-acetyl]-hydrazide], the EC50 amounted to 1070 µM. Compound `CC1=C(C(=O)OCCOc2ccccc2)C(c2ccsc2)NC(=O)N1C` (stereo unspecified) [2-phenoxyethyl 3,4-dimethyl-2-oxo-6-thiophen-3-yl-1,6-dihydropyrimidine-5-carboxylate] had an EC50 of 61.2 µM. The same measure, in the same setting: under `Cc1nc(SCC(=O)N2CCc3ccccc3C2)c2c(C)c(C)sc2n1` [1-(3,4-Dihydro-1H-isoquinolin-2-yl)-2-(2,5,6-trimethyl-thieno[2,3-d]pyrimidin-4-ylsulfanyl)-ethanone] stands 14.7 µM.

As usually defined, the EC50 is the midpoint of the concentration-response curve. Higher therefore signals lower potency in that assay.

Values taken from BindingDB's records for doi:10.7270/Q2M32T6M (Vanderbilt Screening Center for GPCRs, Ion Channels and …, 2009).
